Measurements as given in ChEMBL document CHEMBL4477247, “Computer-aided discovery of anti-HIV agents” (Bioorg Med Chem, 2016).
pEC50: −log10 of the molar value. In brackets after ≈: the same amount, converted by molar mass.

Columns and labels:
[1] = tested on: Human immunodeficiency virus 1; experiment: Antiviral activity against HIV1 3B infected in human MT2 cells assessed as protection against viral infection by MTT method; format: functional, organism-based; conditions: Human immunodeficiency virus 1, 3B
[2] = Cytotoxicity against human MT2 cells assessed as growth inhibition by MTT method; format: cell-based
[3] = tested on: Human immunodeficiency virus 1; experiment: Antiviral activity against HIV1 3B harboring reverse transcriptase Y181C mutant infected in human MT2 cells assessed as protection against viral infection by MTT method; format: functional, organism-based; conditions: for pEC50: Human immunodeficiency virus 1, 3B, MT2, read-out: EC50
[4] = tested on: Human immunodeficiency virus 1; experiment: Antiviral activity against HIV1 3B harboring reverse transcriptase K103N/Y181C double mutant infected in human MT2 cells assessed as protection against viral infection by MTT method; format: functional, organism-based; conditions: for pEC50: Human immunodeficiency virus 1, 3B, MT2, read-out: EC50
[5] = Aqueous solubility of compound in pH 6.5 solution by shake flask method; format: physicochemical; conditions: aqueous solution pH 6.5, pH 6.5

| Compound | pEC50 [1] | CC50 [2] | pEC50 [3] | other results |
| --- | --- | --- | --- | --- |
| CC(C)=CCOc1cc(Nc2nccn3cccc23)ccc1Cl | 7.72 | 20 µM |  |  |
| Cc1cc(/C=C/C#N)cc(Oc2cc(Nc3ncnc(C4CC4)n3)ccc2Cl)c1 |  |  | 8.31 |  |
| Cc1cc(Oc2ccccc2OCCn2ccc(=O)[nH]c2=O)c2cc(C#N)[nH]c2c1 | 8.00 |  |  | EC50 [3]: Not Active; pEC50 [4]: 6.10 |
| COc1ccnc(Nc2ccc(Cl)c(Oc3ccccc3)c2)n1 | 5.60 |  |  |  |
| Cc1cc(/C=C/C#N)cc(Oc2cc(Nc3ncnc(C4CC4)n3)ccc2C)c1 | 8.77 |  | 7.82 |  |
| CC(C)=CCOc1cc(Nc2nccc3cccn23)ccc1Cl | 6.89 | 17 µM |  |  |
| CC(C)=CCOc1cc(Nc2nccc3cc[nH]c23)ccc1Cl | 6.05 | 9.2 µM |  |  |
| N#Cc1ccc2c(Oc3ccccc3OCCn3ccc(=O)[nH]c3=O)cc(F)cc2c1 |  |  |  | solubility thermodynamic [5]: 0.0091 mg/mL (≈ 21.8 µM) |
| N#Cc1ccc2c(Oc3ccc(F)cc3OCCn3ccc(=O)[nH]c3=O)cc(F)cc2c1 |  |  |  | solubility thermodynamic [5]: 0.0829 mg/mL (≈ 190 µM) |
| N#Cc1cc2c(Oc3ccccc3OCCn3ccc(=O)[nH]c3=O)cc(Cl)cc2o1 | 7.72 | > 100 µM | 5.72 | pEC50 [4]: 6.59 |
| Cc1ccnc2c1NC(=O)c1cccnc1N2C1CC1 [NEVIRAPINE] |  | > 100 µM |  | EC50 [3]: Not Active; EC50 [4]: Not Active |
| CSc1ccnc(Nc2ccc(C#N)c(Oc3cccc(/C=C/C#N)c3)c2)n1 | 7.32 | 1.2 µM | 6.60 |  |
| CC(C)=CCOc1cc(Nc2ncnc3occc23)ccc1Cl | 8.30 | 17 µM |  |  |
| N#Cc1cc2c(Oc3ccccc3OCCn3ccc(=O)[nH]c3=O)cccn2c1 | 9.42 | > 100 µM | 6.51 | pEC50 [4]: 7.96 |
| Cc1ccc(OCCn2ccc(=O)[nH]c2=O)c(Cc2ccccc2)c1 | 5.32 |  |  |  |
